Reference: patent US20190365705A1, “TOPICAL TOCOTRIENOL COMPOSITIONS AND METHODS OF INCREASING SKIN STEM CELLS” (OHIO STATE INNOVATION FOUNDATION, priority 2017, published 2019)
{6FAM} = 6-carboxyfluorescein label

Experiments:
β-catenin = test: Topical IWR-1 pre-treatment of adult murine skin followed by TRF; type: in vivo, C57B1/6 mice
Experimental: Mice were randomly (www.random.org) divided into different groups as indicated in corresponding figure legends. The dorsal skin was shaved and hair was depilated using Nair® two days before experiments. TRF or its placebo (PBO) was applied topically at a dose of 5 mg/cm^2 skin, thrice per week. During the procedure, mice were anesthetized by low-dose isoflurane inhalation. Digital photographs were collected (Canon PowerShot S6 and Dermascope from Dino-lite ProII). In some experiments, to inhibit β-catenin expression, IWR-1 (Sigma; I0161) was used. A 10% DMSO stock IWR-1 solution was prepared and diluted with glycerol to a final concentration of 2 μg per 0.5 cm^2 of skin. This solution was applied topically on the dorsal skin of C57B1/6 mice at a dose of 12.5 μL/0.5 cm^2 for four consecutive days of IWR-1 or vehicle followed by 7 consecutive days of […] for one hour under occlusive dressing (Tegaderm™, 3M, St. Paul, Minn.).
Detection of anagen induction. Promotion of hair growth was evaluated by observing the skin color which is indicative of the telogen-to-anagen conversion.^50 Skin, collected and 8 μm formalin-fixed paraffin-embedded skin sections, were deparaffinized and stained with hematoxylin & eosin. Mosaic images at 20× were collected using Axioscanner (Zeiss Microscopy). From histological characterization of the sections, anagen follicles in dermis and subcutis layers were enumerated.
Histology, immunohistochemistry (IHC) and immunocytochemistry (ICC). Histology of skin was performed from 8 μm thick paraffin sections after staining with Hematoxylin and Eosin (H&E). Immunostaining of Ki67 (Abcam, ab15580; 1:400), LGR6 (Abcam, ab126747; 1:100), CD34 (Abcam, ab8158; 1:200), OCT4 (Abcam, ab19857; 1:200), SOX9 (Abcam, ab185230; 1:1000), KLF4 (Abcam; ab151733, 1:200), c-MYC (Abcam; ab32072, 1:200), NANOG (Abcam; ab80892, 1:200), K17 (Abcam, ab53707; 1:100), K15 (Abcam, ab52816; 1:100), Claudin (Invitrogen, RB9209P; 1:200), Occludin (Invitrogen, 711500; 1:200), ZO-1(Invitrogen, 617300; 1:200), ZO-2 (Invitrogen, 389100; 1:200), E-cadherin (Life Technologies, 131900; 1:200) and β-catenin (Abcam, ab22656; 1:200) were performed on paraffin and cryosections of skin sample using specific antibodies as indicated.^57 For immunocytochemistry, cells were fixed with cell fixation buffer (ebiosciences; 00-8222-49) and stained for respective antibodies. Specificity of the antibodies were validated using rabbit isotype control (Abcam, ab27478; 1:400), rat isotype control (Abcam, ab18412; 1:200), and mouse isotype control (Abcam, ab18443; 1:200) (FIG. 13). Briefly, OCT embedded tissue were cryosectioned (10 μm), fixed with cold acetone, blocked with 10% normal goat serum and incubated with specific antibodies overnight at 4° C. Signal was visualized by subsequent incubation with either biotinylated-tagged for DAB staining and fluorescence-tagged appropriate secondary antibodies (Alexa 488-tagged α-mouse, 1:200; Alexa 568-tagged α-mouse, 1:200; Alexa 488-tagged α-rabbit, 1:200; Alexa 568-tagged α-rabbit, 1:200; Alexa 568-tagged α-rat, 1:200).

β-catenin-Tcf3 complex = test: Tcf3 decoy transfection of keratinocytes with tocotrienol treatment (quantitative immunocytochemistry); type: cell-based, human; conditions: 24 h
Experimental: (§1) Cell and cell culture. Immortalized human keratinocytes (HaCaT) were grown in Dulbecco's low-glucose modified Eagle's medium (Life Technologies) as described previously.^55 Cells were maintained in a standard culture incubator with humidified air containing 5% CO2 at 37° C.
Synthesis of Tcf3 decoy and control double-stranded oligodeoxynucleotides. Tcf3 decoy and control double-stranded oligodeoxynucleotides were prepared as described previously.^22 Briefly, FAM labelled phosphorothioate oligodeoxynucleotides were synthesized and purified by Sigma-Aldrich. The oligonucleotides sequence used were as follow: Tcf3 decoy sense, 5′-6FAM-CCGGGCTTTGATCTTTGC-3′ (SEQ ID NO:1); Tcf3 decoy anti-sense, 5′-6FAM-GCAAAGATCAAAGCCCGG-3′ (SEQ ID NO:2); Tcf3 scramble sense, 5′-6FAM-CCGGGTCAGTTCTTTTGC -3′ (SEQ ID NO:3); Tcf3 scramble anti-sense, 5′-6FAM-GCAAAAGAACTGACCCGG -3′ (SEQ ID NO:4). […]
Histology, immunohistochemistry (IHC) and immunocytochemistry (ICC). […] Signal was visualized by subsequent incubation with either biotinylated-tagged for DAB staining and fluorescence-tagged appropriate secondary antibodies (Alexa 488-tagged α-mouse, 1:200; Alexa 568-tagged α-mouse, 1:200; Alexa 488-tagged α-rabbit, 1:200; Alexa 568-tagged α-rabbit, 1:200; Alexa 568-tagged α-rat, 1:200).

[1] = system: human HaCaT keratinocytes; test: E-cadherin expression and β-catenin nuclear translocation in HaCaT keratinocytes (immunocytochemistry); type: cell-based; conditions: 24 h
Experimental: as §1
Histology, immunohistochemistry (IHC) and immunocytochemistry (ICC). Histology of skin was performed from 8 μm thick paraffin sections after staining with Hematoxylin and Eosin (H&E). […] Signal was visualized by subsequent incubation with either biotinylated-tagged for DAB staining and fluorescence-tagged appropriate secondary antibodies (Alexa 488-tagged α-mouse, 1:200; Alexa 568-tagged α-mouse, 1:200; Alexa 488-tagged α-rabbit, 1:200; Alexa 568-tagged α-rabbit, 1:200; Alexa 568-tagged α-rat, 1:200).

β-catenin and Tcf3 = test: Proximity ligation assay (PLA) for β-catenin-Tcf3 in keratinocytes; type: cell-based, human; conditions: 1 μM, 24 h
Experimental: as §1
In situ proximity ligation assay (PLA). PLA was performed as described previously using Sigma Duolink® in situ red starter kit for […] (DUO92105) following manufacturer's instructions except that the incubation time was prolonged to 90 minutes.^58 The assay was performed using rabbit Tcf3 (Abcam, ab69999; 1:50) and mouse β-catenin (Abcam, ab22656; 1:200) antibodies. Slides were imaged using Olympus FV 1000 spectral confocal microscope.

O=C(Nc1cccc2cccnc12)c1ccc(N2C(=O)[C@@H]3[C@H](C2=O)[C@@H]2C=C[C@H]3C2)cc1 [IWR-1]
TRF-induced translocation of β-catenin to the nucleus (β-catenin): inhibited TRF-induced translocation of β-catenin to the nucleus
lowering of E-cadherin in response to TRF (β-catenin): did not influence
epidermal β-catenin (β-catenin; TRF-treated adult skin): effective in degrading epidermal β-catenin
number of anagen hair follicles induced by topical TRF (β-catenin; day 11 (day 7 post TRF application), vs vehicle): significantly decreased
TRF-stimulated keratinocyte proliferation (Ki67+ cells) (β-catenin; vs vehicle DMSO): eliminating the effect of TRF on stimulating keratinocytes proliferation

Tcf3 decoy: FAM labelled phosphorothioate double-stranded oligodeoxynucleotide based on Tcf3 binding consensus sequence (SEQ ID NO:1/2) (sense CCGGGCTTTGATCTTTGC; antisense GCAAAGATCAAAGCCCGG; DNA, all phosphorothioate, 5' {6FAM}, methylation of C not given here)
effect on tocotrienol-induced stemness and pluripotency factors (β-catenin-Tcf3 complex; decoy 0.1 μM vs scramble 0.1 μM, tocotrienol 1 μM): markedly blunted

α-tocotrienol [pure tocotrienol]
membrane E-cadherin expression ([1]; 1 μM): sharp decrease
nuclear translocation of β-catenin ([1]; pure tocotrienol 1 μM): nuclear translocation of β-catenin
interaction of β-catenin and Tcf3 (PLA) (β-catenin and Tcf3): interaction of β-catenin and Tcf3 in the nucleus
stemness and pluripotency factors (SOX9, OCT4, K17, K15, KLF4, c-MYC, NANOG) in keratinocytes (β-catenin-Tcf3 complex; pure tocotrienol 1 μM): induction of stemness as well as pluripotency factors
